From US20070043070A1, “Weak base salts” (priority 2000, published 2007)
Entries after “also recorded” stand apart in the source; their conditions may differ. Structures can show the parent of a compound that is named as a salt. Where two headings read alike, the source gives them in different places. Marks after values point to notes of the source that are not given here.

Tests used:
[1] = cited from earlier work; for pKa: weak base compounds
[2] = Moisture sorption studies (desiccators at 43% and 81% RH, 25° C., 8 days; PXRD of the solid afterwards); type: physicochemical; details: for PXRD pattern / solid state form after storage / moisture adsorbed: 8 days; for hygroscopicity in words: 43 and 81% RH; for Hygroscopicity: gain of moisture: hygrostat for 8 days at 43% RH; for moisture adsorbed: 25° C.
Experimental: The PXRD patterns of different salts of carbendazim were determined at ambient temperature and atmosphere using a Philips PM 990/100 diffractometer (Philips, The Netherlands). The x-ray generator (PW3373/00 Cu LFF DK119706) has a copper radiation source which generates a voltage of 50 kV, and a current of 40 mA. Counts were measured using a X'Celerator detector which is based on real time multiple strip (RTMS) technology. Samples were packed into zero background silicon sample holders, and precautions were used to avoid introducing preferred orientation of the crystallites. The samples were subjected to a spinning movement having a rotation time of 4 s. The samples were scanned with the diffraction angle, 2θ, increasing from 3° to 63°, with a step size of 0.0167° and a counting time of 15.24 s. The XRD pattern traces of samples (salts subjected to moisture sorption or stability) were compared with regard to peak position and relative intensity, peak shifting, and the presence or lack of peaks in certain angular regions.
The moisture sorption of the various salts was determined by exposing weighed amounts (˜2 to 3 mg) of salts in a 4 ml glass vial, which was placed in sealed desiccators containing saturated salt solutions. Saturated salt solutions that give defined relative humidities (as a function of temperature) have been reported in various handbooks containing physical and chemical data.
The current study was performed at 25° C. with relative humidity values of 43% (saturated solution of potassium carbonate) and 81% (saturated solution of potassium bromide). The samples were stored in desiccators of known relative humidity for 8 days, following which they were re-weighed to calculate the % weight change. The solid phases were then analyzed using PXRD to ascertain the effect of the moisture content.

[3] = Dissolution studies in Millipore water; type: physicochemical; details: for completeness of dissolution: 60 min; for t40% (time for dissolution of 40% of given amount): water, amount equivalent to 50 mg carbendazim; for dissolution compared, in words: dissolution profiles
[4] = Dehydration kinetics by TGA (Flynn and Wall method); type: physicochemical; details: TGA heating rates 5-15° C. per minute
Experimental: TGA traces were recorded with a TA Instruments TGA Q-50 (TA Instruments, New Castle, Del.). The sample weight was approximately 2-4 mg, and heating rates of 2-15° C./min under nitrogen gas flow of 60 ml/min were used.
The dehydration kinetics of carbendazim hydrochloride dihydrate was studied by subjecting the crystals to TGA heating rates of 5, 7, 10, 12, and 15° C. per minute. The activation energy (Ea) for the dehydration process was calculated from these TGA data according to the method described by Flynn and Wall (J. H. Flynn and L. A. Wall, J. Research Nat. Bur. Standards A, Phys. Chem. A71, 25 (1967); J. Polym. Sci., Pol. Left. 5, 191 (1967); J. Polym. Sci., Pol. Lett. 4, 323 (1966)). This method involves the analysis of weight loss versus temperature at different heating rates (β) to determine the corresponding absolute temperatures at a constant weight loss (C). Graphs of negative logarithm of heating rates (expressed in ° C./s) (−log β) versus 1/T were plotted (FIG. 8) and the activation energy calculated from the slope of the curves. The activation energy for the dehydration of the hydrochloride salt, calculated from the TGA data, was ˜64 kJ/mol.

[5] = Dissolution studies in 0.1N hydrochloric acid; type: physicochemical; details: for t60% (time for dissolution of 60% of given amount): pH 1, amount equivalent to 50 mg carbendazim
Experimental: A weighed amount of salt (so as to have 50 mg of carbendazim) was triturated to provide a uniform particle size and was suspended in the dissolution media. The volume of dissolution media was 250 ml, and the stirring rate was maintained at 250 rpm. One ml aliquot samples filtered through a 0.45 μm Millipore filter were withdrawn at 1, 5, 10, 15, 20, 30, 45, and 60 min, respectively. One ml of the dissolution medium was added to the dissolution vessel after each sampling period to maintain constant volume. The samples were then analyzed by HPLC.

[6] = Solubility determination of carbendazim salts in water (HPLC); details: for pH: saturated solution in water, Table 13; for PHmax: pH below which solubility plateaus or decreases (solution saturated with respect to salt)
Experimental: These were mixed by end-to-end rotation. Each sample was then filtered through a 0.45 μm PVDF filter. The filterate was collected in two or more fractions, which were analyzed separately by HPLC to ensure that there were no misleading solubility measurements resulting from adsorption onto the filter. Filter adsorption was assumed to be negligible when the concentration of successive fractions agreed within ±5%. The composition of the residual solid was examined to ensure that at least some of the solid phase that was in equilibrium with the solution was indeed the salt.
The Ksp determinations were generally calculated directly from the observed carbendazim concentration once it was established that the residual solid phase contained excess salt. Since […] results in the neutralization of an equivalent amount of counterion to its free base form, the same procedure could be used to calculate Ksp in systems where free acid precipitation occurred prior to saturation of the system with the given salt.
A Beckman Gold HPLC system equipped with a model no. 168 detector at 280 nm was used for all assays. […] The flow rate was controlled at 0.8 ml/min, with carbendazim's retention time at 3.5 min. The injection volume was 20 μL. The evaluation of the assay was conducted by using carbendazim standard solutions at concentrations ranging from 0.1 μg/ml to 100 μg/ml.

CCN(CC)C(=O)c1cccnc1 [Nikethamide]
pKa [1]: 3.5

COC(=O)Nc1nc2ccccc2[nH]1 [Hydrochloride, carbendazim hydrochloride]
PXRD pattern / solid state form after storage ([2]; 43% RH): remained unchanged
hygroscopicity in words [2]: minimally hygroscopic
PXRD pattern / solid state form after storage ([2]; 81% RH): remained unchanged
Hygroscopicity: gain of moisture ([2]; hydrochloride): Gain 0.13%
completeness of dissolution ([3]; Millipore water): did not completely dissolve
t40% (time for dissolution of 40% of given amount) [3]: ˜5 min
activation energy for the dehydration [4]: ~64 kJ/mol
t60% (time for dissolution of 60% of given amount) ([5]; hydrochloride): 2 to 3 min
S (aqueous solubility) [6]: 6.080 mg/mL
Sw [6]: 6.080 mg/mL
pH of saturated sol. [6]: 1.68
pH ([6]; 25° C.): 1.68

carbendazim tosylate
PXRD pattern / solid state form after storage ([2]; 43% RH): remained unchanged
moisture adsorbed ([2]; 81% RH): approximately 4.3%
PXRD pattern / solid state form after storage ([2]; 81% RH): remained unchanged
Hygroscopicity: gain of moisture [2]: Gain 0.27%
completeness of dissolution ([3]; Millipore water): did not completely dissolve
t40% (time for dissolution of 40% of given amount) [3]: ˜5 min
t60% (time for dissolution of 60% of given amount) [5]: 2 to 3 min
pH of saturated sol. ([6]; Table 14): 1.93
Ksp ([6]; calculated after correcting for common ion effect): 4.1 × 10^−4 M^2
PHmax [6]: 1.82
pH ([6]; 25° C.): 1.93
S (aqueous solubility) ([6]; water, 25° C.): 4.815 mg/mL
Sw ([6]; water, Table 14): 4.815 mg/mL

carbendazim besylate
PXRD pattern / solid state form after storage ([2]; 43% RH): remained unchanged
moisture adsorbed ([2]; 81% RH): approximately 4.3%
PXRD pattern / solid state form after storage ([2]; 81% RH): remained unchanged
Hygroscopicity: gain of moisture [2]: Gain 0.18%
completeness of dissolution ([3]; Millipore water): did not completely dissolve
t40% (time for dissolution of 40% of given amount) [3]: ˜5 min
t60% (time for dissolution of 60% of given amount) [5]: 2 to 3 min
pH of saturated sol. ([6]; Table 14): 1.76
PHmax [6]: 1.65
pH ([6]; 25° C.): 1.76
S (aqueous solubility) ([6]; water, 25° C.): 6.992 mg/mL
Sw ([6]; water, Table 14): 6.992 mg/mL

Clc1ccc(COC(Cn2ccnc2)c2ccc(Cl)cc2Cl)c(Cl)c1 (stereo not shown) [Miconazole]
pKa [1]: 6.7

carbendazim mesylate
PXRD pattern / solid state form after storage ([2]; 43% RH): moisture, same
hygroscopicity in words [2]: highly hygroscopic
moisture adsorbed ([2]; 81% RH): 10.1%
PXRD pattern / solid state form after storage ([2]; 81% RH): showed changes in their PXRD patterns
Hygroscopicity: gain of moisture [2]: Gain 2.04%
time to complete dissolution ([3]; Millipore water): ≤ 30 min
dissolution compared, in words ([3]; Millipore water): dissolved the fastest; also recorded: best dissolution time
t40% (time for dissolution of 40% of given amount) [3]: <1 min
time for dissolving 100% of sample ([5]; 0.1N HCl, pH 1.1): instanteously soluble
t60% (time for dissolution of 60% of given amount) [5]: 1 min
pH of saturated sol. ([6]; Table 14): 0.80
pH ([6]; 25° C.): 0.8
S (aqueous solubility) ([6]; water, 25° C.): > 205.662 mg/mL
S (aqueous solubility) ([6]; water, 25° C., listed as mesylate): > 200 mg/mL
Sw ([6]; water, Table 14): >205.662* mg/ml

CC(=O)O.CCCCCCCCCCCCCCCCCC1=NCCN1 [Glyodin]
pKa [1]: ˜7

carbendazim phosphate
PXRD pattern / solid state form after storage ([2]; 43% RH): changed.
PXRD pattern / solid state form after storage ([2]; 43% RH, listed as phosphate): loses intensity in 28 0 2E reflection
PXRD pattern / solid state form after storage ([2]; 43% RH, listed as phosphate salt): change form
hygroscopicity in words [2]: highly hygroscopic
moisture adsorbed ([2]; 81% RH): 7.5%
PXRD pattern / solid state form after storage ([2]; 81% RH): showed changes in their PXRD patterns
Hygroscopicity: gain of moisture [2]: Gain 0.88%
completeness of dissolution ([3]; Millipore water): did not completely dissolve
dissolution compared, in words ([3]; Millipore water): better dissolution than the 1:1 physical mixture
t40% (time for dissolution of 40% of given amount) [3]: ˜5 min
t60% (time for dissolution of 60% of given amount) [5]: 2 to 3 min

Cc1cc(-c2nc3ccccc3s2)ccc1N [AMPB]
pKa [1]: 4

O=S(=O)(O)c1ccccc1 [Benzenesulfonic acid]
Pka1 ([1]; acids used as counter-ions, Table 1): 0.7

COC(=O)Nc1nc2ccccc2[nH]1 [Free Base, carbendazim, reference compound]
Hygroscopicity: gain of moisture [2]: Gain 0.36%
dissolved fraction of the initial dose ([3]; Millipore water, after 60 min): less than 1%
completeness of dissolution ([5]; 0.1N HCl): completely soluble
t60% (time for dissolution of 60% of given amount) [5]: 5 min
S (aqueous solubility) [6]: 0.006 mg/mL
Sw [6]: 0.006 mg/mL
pH of saturated sol. [6]: 5.90

Cc1cc(NC(=O)NC(=O)c2ccccc2N(C)C)ccc1Oc1ncc(Br)cn1 [BPU NSC 639829]
pKa [1]: ˜5

carbendazim hemisulfate monohydrate
PXRD pattern / solid state form after storage ([2]; 43% RH): remained unchanged
hygroscopicity in words [2]: minimally hygroscopic
PXRD pattern / solid state form after storage ([2]; 81% RH): remained unchanged
Hygroscopicity: gain of moisture [2]: Gain 0.38%
completeness of dissolution ([3]; Millipore water): did not completely dissolve
t40% (time for dissolution of 40% of given amount) [3]: ˜3 min
t60% (time for dissolution of 60% of given amount) [5]: 2 to 3 min

CN/C(=N\CCSCc1nc[nH]c1C)NC#N [Cimetadine]
pKa [1]: 6.8

CCCCOC(=O)c1ccc(N)cc1 [Butamben]
pKa [1]: 5.4
